Measured values published in patent US12171229B2, “Heteroaryl-triazole and heteroaryl-tetrazole compounds as pesticides” (BAYER AKTIENGESELLSCHAFT, priority 2018, dated 2024).

Experiments:
Assay type in all cases: in vivo
Ctenocephalides felis [1] = test: Ctenocephalides felis oral test; conditions: 48 h, 100 ppm in cattle blood, after 2 days, adult unfed cat fleas
Method in brief: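 Compound dissolved in DMSO and diluted in cattle blood to test concentration, offered to ~20 unfed adult fleas via a parafilm-sealed blood chamber held at 37° C (fleas at room temperature). Kill recorded at 2 days as % mortality.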

Nezara viridula = Nezara viridula spray test; conditions: 96 h, after 4 days, larvae on barley plants
Method in brief: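 Mortality (%) was assessed at day 4, from 0% (no bugs dead) to 100% (all dead). The spray solution was compound diluted to test concentration in water with 1000 ppm emulsifier and applied to barley carrying southern green stink bug larvae.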

Ctenocephalides felis [2] = test: Ctenocephalides felis in-vitro contact test, adult cat flea; conditions: 5 μg/cm^2 (=500 g/ha), after 48 hours, adult cat fleas, read-out: efficacy (fleas dead or moribund)
Method in brief: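 Compound in acetone coated onto inner walls of glass tubes, e.g. 900 ppm giving 5 μg/cm². After drying, 5–10 adult C. felis added per tube and held at room temperature. At 48 h, fleas unable to escape a 45–50 °C heating plate within 5 min scored dead/moribund, giving % efficacy.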

[3] = tested on: Musca domestica strain WHO-N; test: Musca domestica test (MUSCDO surface treatment & contact assay); conditions: 24 hours after contact, read-out: efficacy (mortality); for mortality at 4 mg/m2: surface concentration 4 mg/m^2, exposure 30 minutes; for mortality at 20 mg/m2: surface concentration 20 mg/m^2, exposure 30 minutes
Method: Musca domestica test (MUSCDO surface treatment & contact assay)
Solvent: Aceton+2000 ppm rapeseed oil methyl ester (RME)
In order to produce a sufficient, active ingredient containing solution it is necessary to solve the test compound in the solvent-mix (acetone at 2 mg/ml/RME 2000 ppm). This solution is pipetted onto a glazed tile and after evaporation of the acetone, adult flies of the species Musca domestica strain WHO-N are placed onto the dried surface. The exposure time is 30 minutes.
Mortality in percent (%) is determined 24 hours after contact of the insects to the treated surface. 100% morality means that all tested insects are dead, whereas 0% means that no insect died.

[4] = tested on: Aedes aegypti strain MONHEIM; test: Aedes aegypti test (AEDSAE surface treatment & contact assay); conditions: 24 hours after contact, read-out: efficacy (mortality); for mortality at 4 mg/m2: surface concentration 4 mg/m^2, exposure 30 minutes; for mortality at 20 mg/m2: surface concentration 20 mg/m^2, exposure 30 minutes
Method in brief: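 Compound dissolved in acetone (2 mg/ml) with 2000 ppm rapeseed oil methyl ester, applied to glazed tile and dried; adult strain MONHEIM mosquitoes exposed 30 minutes. Percent mortality scored 24 hours after contact.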

[5] = tested on: Culex quinquefasciatus strain P00; test: Culex quinquefasciatus test (CULXFA surface treatment & contact assay); conditions: 24 hours after contact, read-out: efficacy (mortality); for mortality at 4 mg/m2: surface concentration 4 mg/m^2, exposure 30 minutes; for mortality at 20 mg/m2: surface concentration 20 mg/m^2, exposure 30 minutes
Method in brief: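 Compound dissolved in acetone (2 mg/ml) with 2000 ppm rapeseed oil methyl ester, applied to glazed tile and dried; adult C. quinquefasciatus strain P00 exposed to surface for 30 minutes. Mortality (%) scored 24 hours after contact.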

Boophilus microplus = Boophilus microplus injection test; conditions: Rhipicephalus microplus, 168 h; 20 μg/animal injected into the abdomen; adult engorged female ticks; egg deposition after 7 days; read-out: efficacy (infertile eggs)
Method in brief: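 Efficacy, from 0% (all eggs fertile) to 100% (all infertile), was scored on eggs laid by five engorged adult females. Each female was injected intra-abdominally with 1 μl of compound solution in DMSO. Fertile egg laying was checked at 7 days, with uncertain eggs kept until hatching at about 42 days.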

Myzus persicae = Myzus persicae oral test; conditions: 120 h, after 5 days
Method in brief: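 Aphid mortality (%) was recorded 5 days after a mixed Myzus persicae population began sucking, through parafilm, on compound solutions (acetone stock diluted with water) combined with sugar-supplemented IPL41 medium.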

[6] = tested on: Anopheles funestus strain FUMOZ-R; test: Anopheles funestus test (ANPHFU surface treatment & contact assay); conditions: 24 hours after contact, read-out: efficacy (mortality); for mortality at 4 mg/m2: surface concentration 4 mg/m^2, exposure 30 minutes; for mortality at 20 mg/m2: surface concentration 20 mg/m^2, exposure 30 minutes
Method in brief: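 Compound dissolved in acetone (2 mg/ml) with 2000 ppm rapeseed oil methyl ester and applied to a glazed tile. After acetone evaporation, adult FUMOZ-R mosquitoes were exposed to the dried surface for 30 min. Percent mortality was scored 24 h after contact.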

| Structure (SMILES) | mortality at 100 ppm (Ctenocephalides felis [1]) | mortality at 100 g/ha (Nezara viridula) | mortality at 500 g/ha (Nezara viridula) | pest or weed control at 5 µg/cm2 (Ctenocephalides felis [2]) | mortality at 4 mg/m2 [3] | mortality at 20 mg/m2 [3] | mortality at 4 mg/m2 [4] | mortality at 20 mg/m2 [4] | mortality at 4 mg/m2 [5] | mortality at 20 mg/m2 [5] | pest or weed control at 0.02 mg (Boophilus microplus) | mortality at 4 ppm (Myzus persicae) | mortality at 4 mg/m2 [6] | mortality at 20 mg/m2 [6] | mortality at 20 ppm (Myzus persicae; 20 ppm) |
| --- | --- | --- | --- | --- | --- | --- | --- | --- | --- | --- | --- | --- | --- | --- | --- |
| Cc1nc([C@H](C)NC(=O)c2cc(C(F)(F)F)cc(C(F)(F)F)c2)n(-c2ccc(C#N)cn2)n1 [Example I-056] | 100% | 100% | 100% | 100% | 90 to 100% | 90 to 100% | 90 to 100% | 90 to 100% | 90 to 100% | 90 to 100% | 100% | 100% |  |  |  |
| C[C@H](NC(=O)c1cc(F)cc(C(F)(F)F)c1)c1ncnn1-c1ccc(C#N)cn1 [Example I-019] | 100% |  | 90% | 100% | 90 to 100% | 90 to 100% | 90 to 100% | 90 to 100% | 90 to 100% | 90 to 100% | 100% |  | 85 to 100% | 90 to 100% |  |
| C[C@H](NC(=O)c1cc(Cl)cc(OC(F)(F)F)c1)c1ncnn1-c1ccc(C#N)cn1 [Example I-041, 3-chloro-N-{(1S)-1-[1-(5-cyanopyridin-2-yl)-1H-1,2,4-triazol-5-yl]ethyl}-5-(trifluoromethoxy)benzamide] | 100% | 100% | 100% | 100% | 90 to 100% | 90 to 100% | 90 to 100% | 90 to 100% | 90 to 100% | 90 to 100% | 100% | 100% | 85 to 100% | 90 to 100% |  |
| C[C@H](NC(=O)c1cc(F)cc(C#N)c1)c1ncnn1-c1ccc(C#N)cn1 [Example I-018] | 100% | 100% | 100% | 100% | 90 to 100% | 90 to 100% | 90 to 100% | 90 to 100% | 90 to 100% | 90 to 100% | 100% | 90% | 85 to 100% | 90 to 100% |  |
| Cc1nc([C@H](C)NC(=O)c2cc(Cl)cc(C(F)(F)F)c2)n(-c2ccc(C#N)cn2)n1 [Example I-049] | 100% | 100% | 100% | 100% | 90 to 100% | 90 to 100% | 90 to 100% | 90 to 100% | 90 to 100% | 90 to 100% | 100% | 100% |  | 90 to 100% |  |
| C[C@H](NC(=O)c1cc(Cl)cc(C(F)(F)F)c1)c1ncnn1-c1ccc(C#N)cn1 [Example I-009] | 100% |  | 100% | 100% | 90 to 100% | 90 to 100% | 90 to 100% | 90 to 100% | 90 to 100% |  | 100% | 100% |  |  |  |
| C[C@H](NC(=O)c1cc(Cl)cc(C(F)(F)F)c1)c1ncnn1-c1ncc(Cl)cc1F [Example I-013] | 100% |  | 100% |  |  | 90 to 100% | 90 to 100% | 90 to 100% | 90 to 100% | 90 to 100% | 100% |  | 85 to 100% | 90 to 100% |  |
| CC(c1ncnn1-c1ccc(C#N)cn1)N(CC1CC1)C(=O)c1cc(Cl)cc(C(F)(F)F)c1 (stereo not drawn) [Example I-007] | 100% | 100% | 100% | 100% | 90 to 100% | 90 to 100% | 90 to 100% | 90 to 100% | 90 to 100% | 90 to 100% | 100% | 90% |  |  | 100% |
| C[C@H](NC(=O)c1cc(Cl)cc(C(F)(F)F)c1)c1ncnn1-c1ccc([N+](=O)[O-])cn1 [Example I-028] | 100% | 100% | 100% |  | 90 to 100% | 90 to 100% | 90 to 100% | 90 to 100% | 90 to 100% | 90 to 100% | 100% | 100% | 85 to 100% | 90 to 100% |  |
| C[C@H](NC(=O)c1cc(Cl)cc(Cl)c1)c1ncnn1-c1ccc(C#N)cn1 [Example I-047] | 100% |  | 100% | 100% | 90 to 100% | 90 to 100% | 90 to 100% | 90 to 100% | 90 to 100% | 90 to 100% | 100% |  | 85 to 100% | 90 to 100% |  |
| C[C@H](NC(=O)c1cc(Cl)cc(Br)c1)c1ncnn1-c1ccc(C#N)cn1 [Example I-046] | 100% |  |  | 100% | 90 to 100% | 90 to 100% | 90 to 100% | 90 to 100% | 90 to 100% | 90 to 100% | 100% | 100% | 85 to 100% | 90 to 100% |  |
